Measured values: patent publication US20260297571A1, “METHODS FOR DECREASING NEURONAL DEATH, INFLAMMATION, AND DEGENERATION” (The Johns Hopkins University, priority 2023, published 2026)

Assays:
[1] = test system: poly-GR expressing neurons; experiment: Cell survival assay, GR50 expressing i^3Neurons; type: cell-based, human
Experimental: (§1) Cell survival assay. I'Neurons were infected with lentivirus to transduce GR50, PR50, BFP or GFP expression in the cells on day 5, day 7, day 9 or day 11 depending on the experimental timeline. For inducible DPRs, the virus was added to neurons on differentiation day 6. The expression was initiated by adding Dox to the differentiation medium (induction day 1). To validate the effect of the drugs on neuron survival, DPR was transduced for 7 days. i^3Neurons were treated with 5 μM ASOs for 7 days or 2.5 μM ISP (Sigma, Cat. No. 5343390001) or 3.7 μM DJ001 (Sigma, Cat. No. SML2787) for 3 days before harvesting. To examine the effect of the drugs on other cellular phenotypes, DPR was transduced for 3 days. 2.5 μM ISP or 3.7 μM DJ001 was added to the culture medium on the same day, followed by FYVE reporter transduction 1 day later.
(§2) To measure cell survival, bright-field images were captured on day 14 using a Nikon TS-2 microscope. At least 4 images were taken at 10× object for each replica. At least 2 replicas were included for each batch. All experiments were performed at least twice. To examine dead neurons, PI (Thermo Fisher, Cat. No. P1304MP) dye was added to the culture medium 30 min before harvesting. Images of bright field and Cy3 channel were acquired, followed by quantifying the surviving neurons and PI^+ signals blindly.

[2] = test system: poly-PR expressing neurons; experiment: Cell survival assay, PR50 expressing i^3Neurons; type: cell-based, human
Experimental: as §1, §2

C9-iPSNs = experiment: Glutamate-induced excitotoxicity assay in C9 iPSNs/iMNs; type: cell-based, human; details: 10 μM glutamate
Experimental: Glutamate toxicity contributes to the disease onset/progression in ALS due to the loss of glutamate transporter 1 (EAAT2). […] To evaluate the effect of PTPσ knockdown to the physiology of C9-iPSNs, glutamate-induced excitotoxicity assays were performed and the percentage of cell death (PI^+) was quantified after the treatment with or without PTPσ knockdown. […] Taken together, the evidence supports PTPσ knockdown as beneficial for homeostasis of endo-lysosomal system, neuronal function, and survival in the C9-iPSNs.
C9 patient iPSNs differentiation (iMNs differentiation). […]
Glutamate-induced excitotoxicity assay. […] Five pairs of age and gender-matched control and C9ORF72-ALS iPSNs were analyzed.
Confocal microscopy and image quantification. […] For GFP-2×FYVE florescence intensity quantification, at least 6 images were taken for each replica with more than 30 neurons. […] The fluorescence intensity of the region of interest was measured and then minus the background intensity. For the quantification of EEA1^+ and LAMP1^+ puncta, EEA1 or LAMP1 channel was merged with MAP2. The puncta within MAP2 region were counted and compared among groups. For the quantification in mouse brains, at least 6 serial sections were imaged to quantify the number of neurons, astrocyte, and microglia in mouse brains. […] At least 500 cells from each biological replicate will be counted for statistical comparison.

PTPσ = details: DJ001; cited from earlier work
[3] = test system: poly-GR expressing neurons (EEA1^+ early endosome); experiment: EEA1 immunofluorescence staining in i^3Neurons; type: cell-based, human; details: DJ001 3.7 μM; 3-days GR50 i^3Neurons
Text: During early endosome formation, Rab5 recruits EEA1 to the early endosomal membrane via local PI3P, thus EEA1 expression is considered a secondary indicator of PI3P level. […] EEA1^+ endosome formation was increased upon knocking down PTPσ in poly-GR expressing neurons (FIGS. 2C-2D).
Cell survival assay. I'Neurons were infected with lentivirus to transduce GR50, PR50, BFP or GFP expression in the cells on day 5, day 7, day 9 or day 11 depending on the experimental timeline. For inducible DPRs, the virus was added to neurons on differentiation day 6. The expression was initiated by adding Dox to the differentiation medium (induction day 1). […]
Confocal microscopy and image quantification. […] For GFP-2×FYVE florescence intensity quantification, at least 6 images were taken for each replica with more than 30 neurons. […] The fluorescence intensity of the region of interest was measured and then minus the background intensity. For the quantification of EEA1^+ and LAMP1^+ puncta, EEA1 or LAMP1 channel was merged with MAP2. The puncta within MAP2 region were counted and compared among groups. For the quantification in mouse brains, at least 6 serial sections were imaged to quantify the number of neurons, astrocyte, and microglia in mouse brains. For glutamate-induced neurotoxicity assays, 5 images of PI staining will be taken at 20× for each well to quantify dead neurons. […]

hematopoietic stem cell = details: in vitro and in the mouse model; cited from earlier work
PIKFYVE = details: YM-201636; cited from earlier work

For `CC(C)(O)CNc1ncc(-c2ccnc(Nc3ccnc(Cl)c3)n2)c(CC2CC2)n1` [VPS34-IN1], the “rescue effect of PTPσ knockdown on GR50 neuron survival” value ([1]; VPS34-IN1 0.5 μM, 2 days, PTPσ knockdown GR50 i^3Neurons) was “completely diminished” and the “rescue by PTPσ knockdown, PR50 neurons” value ([2]; VPS34 inhibitor, PTPσ knockdown PR50 neurons) was “abolished”.
For `N[C@@H](CCC(=O)O)C(=O)O` [glutamate], the “PI^+ dead cells in control shRNA C9-iPSNs” value (C9-iPSNs) was “increased”.
In the case of `O=C(/C=C\Nc1cccc([N+](=O)[O-])c1)c1ccccc1` [DJ001, (Z)-3-((3-nitrophenyl)amino)-1-phenylprop-2-en-1-one], the “specificity of PTPσ inhibition” value (PTPσ) is listed as “highly specific inhibitor”, the “formation of EEA1^+ early endosome” value [3] is listed as “significantly increased” and the “hematopoietic stem cell regeneration” value (hematopoietic stem cell) is listed as “can promote hematopoietic stem cell regeneration”. For the same compound, the “poly-GR expressing neuron survival” value ([1]; DJ001 3.7 μM, GR50 i^3Neurons) was “improves” and the “poly-PR expressing neuron survival” value ([2]; DJ001, PR50 i^3Neurons) was “improves”.
For `Nc1ccc(C(=O)Nc2cccc(-c3nc(N4CCOCC4)c4oc5ncccc5c4n3)c2)cn1` [YM-201636], the “PI3P levels via inhibition of PI3P to PI(3,5)P2 conversion” value (PIKFYVE) is given as “can boost PI3P levels” and the “rescue effect in poly-GR expressing neurons (survival)” value ([1]; YM-201636 0.5 μM, GR50 i^3Neurons) is given as “robust rescue effect”.
